Source: patent US6498168B2, “Muscarinic antagonists” (Schering Corporation, priority 1995, dated 2002)
Where a name gives a salt, the structure may show the parent alone. Read-outs that look alike come from different tables or passages of the source.

Key:
[1] = target: T1, cloned human m4 muscarinic receptor (Homo sapiens, UniProt P08173); assay: Muscarinic binding activity, 3H-QNB, m4
T1 sequence (P08173 1-479): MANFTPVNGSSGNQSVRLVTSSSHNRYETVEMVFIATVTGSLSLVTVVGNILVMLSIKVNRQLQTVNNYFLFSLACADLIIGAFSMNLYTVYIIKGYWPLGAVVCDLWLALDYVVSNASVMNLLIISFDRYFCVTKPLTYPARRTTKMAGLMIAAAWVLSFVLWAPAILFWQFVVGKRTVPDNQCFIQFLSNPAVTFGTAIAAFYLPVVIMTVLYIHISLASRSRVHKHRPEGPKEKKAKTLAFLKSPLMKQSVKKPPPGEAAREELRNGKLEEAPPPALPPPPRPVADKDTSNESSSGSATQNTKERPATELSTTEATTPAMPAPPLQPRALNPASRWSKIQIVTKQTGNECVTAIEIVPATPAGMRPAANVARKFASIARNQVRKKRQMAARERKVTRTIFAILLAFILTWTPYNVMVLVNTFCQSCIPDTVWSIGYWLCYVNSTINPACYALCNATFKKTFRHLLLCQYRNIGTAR
Experimental: (§1) The compound of interest is tested for its ability to inhibit binding to the cloned human m1, m2, m3, and m4 muscarinic receptor subtypes. The sources of receptors in these studies were membranes from stably transfected CHO cell lines which were expressing each of the receptor subtypes. Following growth, the cells were pelleted and subsequently homogenized using a Polytron in 50 volumes cold 10 mM Na/K phosphate buffer, pH 7.4 (Buffer B). The homgenates were centrifuged at 40,000×g for 20 minutes at 4° C. The resulting supernatants were discarded and the pellets were resuspended in Buffer B at a final concentration of 20 mg wet tissue/ml. These membranes were stored at −80° C. until utilized in the binding assays described below.
(§2) Binding to the cloned human muscarinic receptors was performed using ^3H-quinuclidinyl benzilate (QNB) (Watson et al., 1986). Briefly, membranes (approximately 8, 20, and 14 μg of protein assay for the m1, m2, and m4 containing membranes, respectively) were incubated with ^3H-QNB (final concentration of 100-200 pM) and increasing concentrations of unlabeled drug in a final volume of 2 ml at 25° C. for 90 minutes. Non-specific binding was assayed in the presence of 1 μM atropine. The incubations were terminated by vacuum filtration over GF/B glass fiber filters using a Skatron filtration apparatus and the filters were washed with cold 10 mM Na/K phosphate butter, pH 7.4. Scintillation cocktail was added to the filters and the vials were incubated overnight. The bound radioligand was quantified in a liquid scintillation counter (50% efficiency). The resulting data were analyzed for IC50 values (i.e. the concentration of compound required to inhibit binding by 50%) using the EBDA computer program (McPherson, 1985). Affinity values (Ki) were then determined using the following formula (Cheng and Prusoff, 1973); [formula]

[2] = target: T2, cloned human m2 muscarinic receptor (Homo sapiens, UniProt P08172); assay: Muscarinic binding activity, 3H-QNB, m2
T2 sequence (P08172 1-466): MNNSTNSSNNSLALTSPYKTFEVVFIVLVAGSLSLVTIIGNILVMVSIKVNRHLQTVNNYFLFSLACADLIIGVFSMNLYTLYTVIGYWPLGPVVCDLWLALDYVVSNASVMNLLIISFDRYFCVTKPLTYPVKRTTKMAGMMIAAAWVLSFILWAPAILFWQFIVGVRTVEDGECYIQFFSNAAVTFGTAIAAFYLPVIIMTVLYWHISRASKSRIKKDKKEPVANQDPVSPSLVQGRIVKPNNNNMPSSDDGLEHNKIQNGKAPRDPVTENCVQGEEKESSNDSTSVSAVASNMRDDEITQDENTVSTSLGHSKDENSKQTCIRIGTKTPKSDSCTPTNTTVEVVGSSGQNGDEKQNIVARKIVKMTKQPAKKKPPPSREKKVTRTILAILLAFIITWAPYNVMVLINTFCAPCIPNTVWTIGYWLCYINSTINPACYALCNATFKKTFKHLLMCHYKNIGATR
Experimental: as §1, §2
(§3) To determine the degree of selectivity of a compound for binding the m2 receptor, the Ki value for m1 receptors was divided by the Ki value for m2 receptors. A higher ratio indicates a greater selectivity for binding the m2 muscarinic receptor.

[3] = target: T3, cloned human m1 muscarinic receptor (Homo sapiens, UniProt P11229); assay: Muscarinic binding activity, 3H-QNB, m1
T3 sequence (P11229 1-460): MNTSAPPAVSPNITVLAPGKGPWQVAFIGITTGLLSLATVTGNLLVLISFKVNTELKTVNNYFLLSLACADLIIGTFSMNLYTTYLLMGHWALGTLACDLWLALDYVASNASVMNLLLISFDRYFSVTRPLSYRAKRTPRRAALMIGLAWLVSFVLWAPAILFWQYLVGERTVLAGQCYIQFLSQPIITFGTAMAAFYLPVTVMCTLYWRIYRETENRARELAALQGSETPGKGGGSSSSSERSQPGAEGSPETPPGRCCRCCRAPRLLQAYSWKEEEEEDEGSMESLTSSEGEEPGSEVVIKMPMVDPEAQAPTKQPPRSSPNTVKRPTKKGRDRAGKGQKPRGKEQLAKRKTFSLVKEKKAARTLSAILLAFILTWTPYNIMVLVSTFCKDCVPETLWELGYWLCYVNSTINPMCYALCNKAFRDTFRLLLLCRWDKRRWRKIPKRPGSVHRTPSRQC
Experimental: as §1, §2, §3

[4] = test system: ACh release from striatum; format: in vivo, rat; details: for Peak ACh release as % increase over Baseline: striatum of conscious rat
Experimental: Surgery: For these studies, male Sprague-Dawley Rats (250-350 g) were anesthetized with sodium pentobarbital (54 mg/kg, ip) and placed on a Kopf sterotaxic apparatus. The skull was exposed and drilled through to the dura at a point 0.2 mm anterior and 3.0 mm lateral to the bregma. At these coordinates, a guide cannula was positioned at the outer edge of the dura through the drilled opening, lowered perpendicularly to a depth of 2.5 mm, and permanently secured with dental cement to bone screws. Following the surgery, rats were given ampicillin (40 mg/kg, ip) and individually housed in modified cages. A recovery period of approximately 3 to 7 days was allowed before the microdialysis procedure was undertaken.
Microdialysis: All of the equipment and instrumentation used to conduct in vivo microdialysis was obtained from Bioanalytical Systems, Inc. (BAS). The microdialysis procedure involved the insertion through the guide cannula of a thin, needle-like perfusable probe (CMA/12,3 mm×0.5 mm) to a depth of 3 mm in striatum beyond the end of the guide. The probe was connected beforehand with tubing to a microinjection pump (CMA-/100). Rats were collared, tethered, and, following probe insertion, were placed in a large, clear, plexiglass bowl with litter material and access to food and water. The probe was perfused at 2 μl/min with Ringer's buffer (NaCl 147 mM; KCl 3.0 mM; CaCl2 1.2 mM; MgCl2 1.0 mM) containing 5.5 mM glucose, 0.2 mM L-ascorbate, and 1 μM neostigmine bromide at pH 7.4). To achieve stable baseline readings, microdialysis was allowed to proceed for 90 minutes prior to the collection of fractions. Fractions (20 μl) were obtained at 10 minute intervals over a 3 hour period using a refrigerated collector (CMA170 or 200). Four to five baseline fractions were collected, following which the drug or combination of drugs to be tested was administered to the animal. Upon completion of the collection, each rat was autopsied to determine accuracy of probe placement.
Acetylcholine (ACh) analysis: The concentration of ACh in collected samples of microdialysate was determined using HPLC/electrochemical detection. Samples were auto-injected (Waters 712 Refrigerated Sample Processor) onto a polymeric analytical HPLC column (BAS, MF-6150) and eluted with 50 mM Na2HPO4, pH 8.5. To prevent bacterial growth, Kathon CG reagent (0.005%) (BAS) was included in the mobile phase. Eluent from the analytical column, containing separated ACh and choline, was then immediately passed through an immobilized enzyme reactor cartridge (BAS, MF-6151) coupled to the column outlet. The reactor contained both acetylcholinesterase and choline oxidase covalently bound to a polymeric backbone. […] Data acquisition was carried out using an IBM Model 70 computer equipped with a microchannel IEEE board. Integration and quantification of peaks were accomplished using “Maxima” chromatography software (Waters Corporation). Total run time per sample was 11 minutes at a flow rate of 1 ml/min. Retention times for acetylcholine and choline were 6.5 and 7.8 minutes, respectively. To monitor and correct for possible changes in detector sensitivity during chromatography, ACh standards were included at the beginning, middle and end of each sample queue.
Increases in ACh levels are consistent with presynaptic m2 receptor antagonism.

ACh release from cortex = assay: Microdialysis, ACh release from cortex of conscious rat; format: in vivo
[5] = range given for the named group of compounds, read-out: Ki, nM, m4
[6] = range given for the named group of compounds, read-out: Ki, nM, m2
[7] = range given for the named group of compounds, read-out: Ki, nM, m1

Compound: COC(=O)C(C)(c1ccc([S+]([O-])c2ccc(OC)cc2)cc1)N1CCN(C2CCCCC2)CC1 (centres unmarked) [Compound 296]
- Ki [1, 5]: 0.33 to 36 nM
- Ki [2, 6]: 0.05 to 16.6 nM
- Ki [3, 7]: 2.1 to 224 nM

Compound: C=C(c1ccc([S+]([O-])c2ccc(OC)cc2)cc1)C1CCN(C2CCCCC2)CC1 (centres unmarked) [Compound 304]
- Ki [1, 5]: 0.33 to 36 nM
- Ki [2, 6]: 0.05 to 16.6 nM
- Ki [3, 7]: 2.1 to 224 nM

Compound: COC(=O)C(c1ccc(S(=O)(=O)c2ccc(OC)cc2)cc1)N1CCN(C2CCCCC2)CC1 (centres unmarked) [Compound 214]
- Ki [1, 5]: 0.33 to 36 nM
- Ki [2, 6]: 0.05 to 16.6 nM
- Ki [3, 7]: 2.1 to 224 nM

Compound: Nc1c2c(nc3ccccc13)CCCC2 [Tacrine, reference compound]
- Peak ACh release as % increase over Baseline ([4]; Tacrine 3 mg/kg i.p. (FIG. 3)): 30 (FIG. 3) %

Compound: CC1CN(C2CCCCC2)CCN1C(C)c1ccc(Oc2ncccn2)cc1 (centres unmarked) [Compound 269]
- Ki [1, 5]: 0.33 to 36 nM
- Ki [2, 6]: 0.05 to 16.6 nM
- Ki [3, 7]: 2.1 to 224 nM

Compound: COc1ccc(S(=O)(=O)c2ccc([C@@H](C)N3CCN(C4CCCCC4)C[C@H]3C)cc2)cc1 [Compound 667]
- melting point: 241 to 242 °C
- Ki [2, 6]: 0.03 to 0.48 nM

Compound: COc1ccc([S+]([O-])c2ccc(C(=O)C3CCN(C4CCCCC4)CC3)cc2)cc1 (centres unmarked) [Compound 305]
- Ki [1, 5]: 0.33 to 36 nM
- melting point: 125 °C
- Ki [2, 6]: 0.05 to 16.6 nM
- Ki [3, 7]: 2.1 to 224 nM

Compound: C=C(c1ccc(Sc2ccc(OC)cc2)cc1)C1CCN(C2CCCCC2)CC1 [Compound 302]
- Ki [1, 5]: 0.33 to 36 nM
- Ki [2, 6]: 0.05 to 16.6 nM
- Ki [3, 7]: 2.1 to 224 nM

Compound: C=C(c1ccc(S(=O)(=O)c2ccc(OC)cc2)cc1)C1CCN(C2CCN(C(=O)OCC)CC2)CC1 [Compound 760]
- Ki [2, 6]: 0.03 to 0.48 nM

Compound: c1cnc(Oc2ccc(C(C3CCCCC3)N3CCN(C4CCCCC4)CC3)cc2)nc1 (single isomer, unassigned) [227(−)]
- Ki [1, 5]: 0.33 to 36 nM
- Ki [2, 6]: 0.05 to 16.6 nM
- Ki [3, 7]: 2.1 to 224 nM

Compound: C=C(c1ccc([S+]([O-])c2ccc(OC)cc2)cc1)C1CCN(C2CCCCC2)CC1 (single isomer, unassigned) [Compound 301]
- melting point: 141 to 142 °C

Compound: O=C(O)/C=C\C(=O)O.c1ccc(Oc2ccc(C3(N4CCN(C5CCCCC5)CC4)CCSCC3)cc2)cc1
- melting point: 137 to 139 °C

Compound: CC(C)C(c1ccc(Oc2ncccn2)cc1)N1CCN(C2CCCCC2)CC1 (centres unmarked) [Compound 232]
- Ki [1]: 0.33 to 36 nM
- Ki [2]: 0.05 to 16.6 nM
- Ki [3]: 2.1 to 224 nM

Compound: COc1ccc(S(=O)(=O)c2ccc([C@H](C)N3CCN(C4CCCCC4)C[C@H]3C)cc2)cc1 [Compound 656]
- melting point: 227 to 230 °C
- Ki [2, 6]: 0.03 to 0.48 nM

Compound: COc1ccc([S+]([O-])c2ccc(C(C)(C#N)N3CCN(C4CCCCC4)CC3)cc2)cc1 (centres unmarked) [Compound 289]
- Ki [1, 5]: 0.33 to 36 nM
- Ki [2, 6]: 0.05 to 16.6 nM
- Ki [3, 7]: 2.1 to 224 nM

Compound: COc1ccc([S+]([O-])c2ccc(C(C#N)N3CCN(C4CCCCC4)CC3)cc2)cc1 (single isomer, unassigned) [Compound 169]
- increase in ACh release ([4]; oral administration, brain region not stated): significant increase
- Peak ACh release as % increase over Baseline ([4]; 0.1 mg/kg i.p. (FIG. 2)): 10%
- Peak ACh release as % increase over Baseline ([4]; 1 mg/kg i.p. (FIG. 2)): 30%
- Peak ACh release as % increase over Baseline ([4]; 3 mg/kg i.p. (FIG. 2)): 125%
- Peak ACh release as % increase over Baseline ([4]; 10 mg/kg i.p. (FIG. 2)): 150%
- Peak ACh release as % increase over Baseline ([4]; 30 mg/kg i.p. (FIG. 2)): 270%
- Peak ACh release as % increase over Baseline ([4]; Compound 169 1 mg/kg i.p. (FIG. 4)): 40 (FIG. 4) %
- Peak ACh release as % increase over Baseline (ACh release from cortex; 1 mg/kg i.p. (FIG. 1)): 75%
- Peak ACh release as % increase over Baseline (ACh release from cortex; 10 mg/kg i.p. (FIG. 1)): 400%
- Peak ACh release as % increase over Baseline (ACh release from cortex; 30 mg/kg i.p. (FIG. 1)): 1500%

Compound: C=C(c1ccc(Sc2ccc(OC)cc2)cc1)C1CCN(C2CCCCC2)CC1 (as salt: hydrochloride) [Compound 302]
- melting point: 227 to 230 °C

Compound: C=C(c1ccc([S+]([O-])c2ccc(OC)cc2)cc1)C1CCN(C2CCCCC2)CC1 (single isomer, unassigned) [Compound 300]
- Ki [1, 5]: 0.33 to 36 nM
- Ki [2, 6]: 0.05 to 16.6 nM
- Ki [3, 7]: 2.1 to 224 nM
